One may read the EC50 as the concentration giving half of the maximal effect.

The test system of one assay is 786-O-Hif-Luc cells. Put plainly: Luciferase assay (HIF responsive element reporter). The following applies: 24 h, read-out: Mean Luciferase EC50 (nM).
Assay [1] concerns CT26.WT mouse carcinoma cells. Put plainly: Mouse colon CT26 syngeneic tumor model. The following applies: BALB/c mice, after 20 days of treatment; Compound 163 30 mg/kg BID, α-CTLA-4 or IgG control 10 mg/kg BIW.
Assay [2] concerns B16-F10 mouse melanoma cells. Put plainly: Mouse melanoma B16-F10 syngeneic tumor model. The note with it: C57BL/6 mice, after 14 days of treatment; Compound 163 30 mg/kg BID, α-PD-1 or IgG control 10 mg/kg BIW.

Experimental for 786-O-Hif-Luc cells: A pool of infected cells were then selected against 2 μg/mL of puromycin (P8833, Sigma) for 10 days followed by limited dilution to select single clones.
Each concentration was tested in triplicate. After about 24 hours, luciferase activity was determined using ONE-Glo Luciferase Assay Reagent (E6110, Promega) following the manufacturer's recommended procedure. EC50 were calculated using Dotmatics software.

On to `CS(=O)(=O)c1ccc(Oc2cc(F)cc(C#N)c2)c2c1[C@H](O)C(F)(F)C2` [Compound 163, (S)-3-((2,2-Difluoro-1-hydroxy-7-(methylsulfonyl)-2,3-dihydro-1H-inden-4-yl)oxy)-5-fluorobenzonitrile], for which the EC50 in the assay on 786-O-Hif-Luc cells was less than 50 nM. Also, the results for the “Tumor size (mm^3) Mean ± SEM” value in assay [1] and in assay [2] were 1612 ± 305 mm^3 and 2133.89 ± 306.44 mm^3, respectively.

The record behind these values is patent US10335388B2, “Combination therapy of a HIF-2-alpha inhibitor and an immunotherapeutic agent and uses thereof” (PELOTON THERAPEUTICS, INC., priority 2015, dated 2019).
